Results as given in patent US11168052B2, “Carbamate derivative compounds, processes for preparing them and their uses” (BIO-PHARM SOLUTIONS CO., LTD., priority 2016, dated 2021).

What was measured:
[1] = tested on: acetic acid-induced writhes in ICR mice; experiment: Writhing test (acetic acid); type: in vivo; conditions: Mus musculus, po
Experimental: To examine the pain relief effect of the carbamate compounds, a writhing test was conducted, referring to Fischer, L. G. et al. (2008).
ICR mice (male, 24-28g; Orient Bio, Korea) were habituated before test (in test room) for 1 hour. Animals were fasted 2 hr before administration of compounds. Each of compounds was orally administered at the three dose, 10 ul/g, bw (n=3-5/group). All compounds were dissolved in a vehicle of 30% (v/v) PEG 400 or 20% (v/v) Tween 80. The control group was treated the vehicle without compounds.
0.2-2 hour after the administration of compounds, 0.6% acetic acid at the dose of 10 ul/g by bodyweight was injected into the mice Animals were habituated in the cage for 5 min. 5 min after habituation, the number of writhes (abdominal constriction) was counted for 15 min, referring to Korzeniewska-Rybicka, I. et al. (1998) and compared with that of a control.
The relative values compared to the control (% control) were calculated and shown in […]

[2] = tested on: CFA-induced pain model in rats; experiment: Antiallodynic activity on Complete Freund's Adjuvant (CFA)-induced inflammatory pain model; type: in vivo, Sprague-Dawley rats; conditions: Rattus norvegicus, ip, 50 mg/kg intraperitoneally, von Frey threshold relative to sham, 0.5 hr after administration, read-out: Efficacy of 50 mg/kg(%)
Procedure, shortened: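 Male Sprague-Dawley rats given 100 ul CFA intraplantar in the right hind paw; one week later, ipsilateral mechanical allodynia (baseline threshold <4 g required) assessed with von Frey up-and-down method, 50% withdrawal threshold by Dixon formula. Compounds 50 mg/kg i.p. in 30% PEG or 20% Tween 80, tested 0.5 h post-dose; values as % of sham.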

[3] = tested on: MES (electroshock) seizure in mice; experiment: Anti-epilepsy activity, MES test in mouse; type: in vivo, ICR mice; conditions: po
Procedure, shortened: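 Male ICR mice (19–25 g) and male SD rats (100–130 g) dosed orally with compound in 20% Tween 80/saline, then shocked via corneal electrodes at peak time (mice 50 mA, rats 150 mA; 60 Hz, 0.2 sec). Three doses used; ED50 for seizure protection by Litchfield–Wilcoxon log-probit.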

[4] = tested on: Lithium-pilocarpine induced seizure in rats; experiment: Lithium-pilocarpine induced epilepsy test (LI-PILO), prevention test; type: in vivo, Sprague-Dawley rats
Procedure, shortened: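 Male Sprague-Dawley rats (175 g) received lithium chloride 127 mg/kg i.p., then pilocarpine 30-43 mg/kg i.p. 18-20 h later, with methyl-scopolamine 2 mg/kg given 30 min before pilocarpine. Test drugs in 20% Tween80 were given i.p. 0.5-4 h beforehand (n=6). Protection meant no Racine grade 3-5 seizure over 90 min, and ED50 was determined at peak time.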

Q: Which results are given for `NC(=O)O[C@@H]1c2c(Cl)cccc2CC[C@@H]1O` [Example 19, (1R, 2S)-8-chloro-2-hydroxy-1,2,3,4-tetrahydronaphthalen-1-yl carbamate]?
A: ED50 [1]: 30 mg/kg; response vs control in vivo at 50 mg/kg [2]: 51.6%; ED50 [3]: 22.4 mg/kg; Lithium pilocarpine model (pre) efficacy % ([4]; i.p., dose 50 mg/kg): 50%

Q: How did the ED50 [1] turn out when `NC(=O)O[C@@H]1CCc2cccc(Cl)c2[C@@H]1O` [Example 1, (1S, 2R)-8-chloro-1-hydroxy-1,2,3,4-tetrahydronaphthalen-2-yl carbamate] was run?
A: Its ED50 is 46.1 mg/kg.

Q: What about the response vs control in vivo at 50 mg/kg [2] of the same compound?
A: The response vs control in vivo at 50 mg/kg was 74.9%.

Q: And the ED50 [3]?
A: Its ED50 is 12.1 mg/kg.

Q: And the ED50 ([4]; Rattus norvegicus, ip, prevention, read-out: Lithium pilocarpine model (pre) ED50)?
A: The ED50 was 22 mg/kg.
